Experimental data as given in patent publication US12661335B2, “Halogenated xanthene-containing topical anti-gram-positive bacterial ophthalmic composition and method” (Provectus Pharmatech, Inc., priority 2021, dated 2026).
Values after ≈ are worked out from the molar mass of the structure shown. Read-outs that look alike come from different tables or passages of the source.

What was measured:
[1] = tested on: Staphylococcus aureus subsp. Aureus BAA-1683 (a MRSA strain); test: MIC, broth dilution method, dark condition; assay type: cell-based; details: Table 1 entry 5, 24 h
[2] = tested on: Staphylococcus aureus subsp. Aureus BAA-2094 ™ (a MRSA strain); test: MIC, broth dilution method, dark condition; assay type: cell-based; details: Table 1 entry 9, 24 h
[3] = tested on: Gram-negative bacteria; test: Susceptibility of Gram-negative bacteria, dark condition; assay type: cell-based
From the text: Under the dark condition RB is known to display antibacterial activity at high concentrations.

[4] = tested on: patient-isolated methicillin-resistant Staphylococcus aureus (MRSA); details: cited from earlier work
[5] = tested on: Staphylococcus aureus 6538 ™; test: MIC, broth dilution method, dark condition; assay type: cell-based; details: Table 1 entry 4, 24 h
[6] = tested on: F. solani; details: three days of incubation, cited from earlier work
[7] = tested on: Bacillus cereus 13061 ™; test: MIC, broth dilution method, dark condition; assay type: cell-based; details: Table 1 entry 3, 24 h
[8] = tested on: Staphylococcus aureus subsp. Aureus BAA-41 ™ (a MRSA strain); test: MIC, broth dilution method, dark condition; assay type: cell-based; details: Table 1 entry 6, 24 h
[9] = tested on: Enterococcus faecium NR-32065 (a vancomycin- resistant strain); test: MIC, broth dilution method, dark condition; assay type: cell-based; details: Table 1 entry 20, 24 h
[10] = tested on: 7 methicillin-resistant S. aureus (MRSA) with different SCCmec types; test: Bactericidal activity under fluorescent or LED light, MRSA panel; assay type: cell-based, Staphylococcus aureus; details: under the fluorescent or LED light; Table 1 entries 5-11
Experimental: Minimum inhibitory concentrations (MICs) were determined by broth dilution microplate alamar blue assay or by OD measurement. All compounds were stored in DMSO or saline (1 mg/100 μL concentration). This concentration was used as the stock solution for all MIC studies. Each compound from stock solution was placed in the first well of a sterile 96 well plate and a serial dilution was conducted with the culturing broth (total volume of 10 μL). The bacterial suspension at log phase (190 μL) was added to each well (total volume of 200 μL), and was incubated for 24 h at 37° C. 20 μL of resazurin (0.02%) was added to each well and incubated for 4 h, (National Committee for Clinical Laboratory Standards (NCCLS) method (pink=growth, blue=no visible growth)). The OD measurements were performed for all experiments prior to performing colorimetric assays. The absorbance of each well was also measured at 570 and 600 nm via UV-Vis.

[11] = tested on: Streptococcus pneumoniae 6301 ™; test: MIC, broth dilution method, dark condition; assay type: cell-based
[12] = tested on: Fusarium keratoplasticum-infected cornea; details: one patient, cited from earlier work
[13] = concentrations below 2.0%; cited from earlier work
[14] = tested on: Mycobacterium avium subsp. Avium 2285; test: MIC, broth dilution method, dark condition; assay type: cell-based; details: Table 1 entry 26, 24 h
[15] = tested on: biofilms of S. aureus 6508™; test: Biofilm eradication assay; assay type: cell-based, Staphylococcus aureus; details: for viable bacteria in biofilm: dark condition
Experimental: 62:394-399 (2013)], and was used as a control.
Linezolid was applied as a positive control at very high concentration of 600 μg/mL (>100×MIC for the planktonic cells) in biofilm assays reported by Kurosu et al., Molecules 27:322 (2022).

[16] = tested on: Staphylococcus epidermidis 35984 ™; test: MIC, broth dilution method, dark condition; assay type: cell-based
[17] = tested on: Staphylococcus aureus BR 5 (A methicillin and vancomycin resistant strain); test: MIC, broth dilution method, dark condition; assay type: cell-based; details: Table 1 entry 13, 24 h
[18] = tested on: Mycobacterium smagmatis 607 ™; test: MIC, broth dilution method, dark condition; assay type: cell-based, Mycobacterium smegmatis
[19] = tested on: Staphylococcus aureus subsp. Aureus BAA-44 ™ (a MRSA strain); test: MIC, broth dilution method, dark condition; assay type: cell-based; details: Table 1 entry 8, 24 h
[20] = tested on: Staphylococcus aureus strain AIS 1000505 (VRS10, a vancomycin-resistant strain); test: MIC, broth dilution method, dark condition; assay type: cell-based; details: Table 1 entry 14, 24 h
[21] = tested on: multidrug-resistant Fusarium keratoplasticum; details: RB about 0.1%, photoactivated by 15 minutes irradiation at 375 nm or 518 nm; cited from earlier work
[22] = tested on: A. fumigattus; details: three days of incubation, cited from earlier work
[23] = tested on: progressive infectious keratitis; details: cited from earlier work
[24] = tested on: Staphylococcus aureus subsp. Aureus 33592 ™ (a methicillin and gentamicin resistant strain); test: MIC, broth dilution method, dark condition; assay type: cell-based; details: Table 1 entry 11, 24 h
[25] = tested on: biofilms of E. faecium NR-32065; test: Biofilm eradication assay; assay type: cell-based, Enterococcus faecium; details: fluorescent and dark conditions; concentration-dependent
From the text: Linezolid is not an effective drug in eradicating biofilms of Gram-positive bacteria, but has a beneficial effect in prevention of biofilm formations [Reiter et al., J. Med. Microbiol. 62:394-399 (2013)], and was used as a control.
We confirm that RB is an excellent agent to eradicate biofilms of Gram-positive bacteria, including drug-resistant strains. […] These studies indicate that RB has the potential antibacterial agent to kill drug-resistant bacteria in any growth phases.

[26] = tested on: Staphylococcus aureus subsp. Aureus BAA-42 ™ (a MRSA strain); test: MIC, broth dilution method, dark condition; assay type: cell-based; details: Table 1 entry 7, 24 h
[27] = tested on: Mycobacteroides abscessus 19977 ™; test: MIC, broth dilution method, dark condition; assay type: cell-based; details: Table 1 entry 29, 24 h
[28] = tested on: Staphylococcus aureus BAA-2313 ™ (a MRSA strain); test: MIC, broth dilution method, dark condition; assay type: cell-based; details: Table 1 entry 10, 24 h

In the case of O=C(O)c1c(Cl)c(Cl)c(Cl)c(Cl)c1-c1c2cc(I)c(=O)c(I)c-2oc2c(I)c(O)c(I)cc12 [RB, 4,5,6,7-tetrachloro-2′,4′,5′,7′-tetraiodofluorescein], the MIC [1] is reported as 50 µg/mL (≈ 51.4 µM), the MIC [2] is reported as 25 µg/mL (≈ 25.7 µM) and the “susceptibility of Gram-negative bacteria to RB” value [3] is reported as “not susceptible”. The “growth inhibition of MRSA strain 1” value ([4]; RB 0.03% in dark conditions) was “incomplete inhibition”, the “growth inhibition of MRSA strain 2” value ([4]; RB 0.03% in dark conditions) was “complete inhibition” and the “growth inhibition of both MRSA strains” value ([4]; RB 0.1% in the dark) was “Complete growth inhibition”. The “growth inhibition of both MRSA strains” value ([4]; RB 0.1 and 0.03%, ambient room light or green LED irradiation (5.4 J/cm^2)) was “Complete growth inhibition”, the MIC [5] was 50 µg/mL (≈ 51.4 µM) and the “Day 3 Growth Inhibition Percentage, RB + 518 nm Irradiation” value ([6]; 518 nm, 5.4 J/cm^2) was 78.2 ± 2.1 Percentage. For the same compound, the “Day 3 Growth Inhibition Percentage, RB Only” value ([6]; dark, no irradiation) was 7.3 ± 1.1 Percentage, the MIC [7] was 50 µg/mL (≈ 51.4 µM) and the MIC [8] was 25 µg/mL (≈ 25.7 µM). For the same compound, the MIC [9] was 50 µg/mL (≈ 51.4 µM), the “concentration at which all MRSA strains were killed” value [10] was 0.78 to 3.1 µg/mL and the MIC ([11]; Streptococcus pneumoniae, Table 1 entry 24, broth dilution, dark, 24 h) was > 100 µg/mL. For the same compound, the “susceptibility to RB” value ([11]; entry 24) was “showed resistance”, the “time to resolution of pain post irradiation” value ([12]; RB dripped on debrided cornea 30 minutes, 518 nm light 0.9 J/cm^2) was 36 h and the “decrease of infiltrate size in all directions” value ([12]; four days after treatment) was “approximately 1 mm”. The “safety of RB under natural and artificial lights” value [13] was “considered to be safe”, the MIC [14] was 50 µg/mL (≈ 51.4 µM) and the “viable bacteria in biofilm” value ([15]; RB 50.0 μg/mL (2×MIC under dark)) was “significantly reduced the number of viable bacteria”. For the same compound, the “viable bacteria in biofilm” value ([15]; RB 1,000 μg/mL) was “No viable bacteria”, the “biofilm eradication, log reduction” value ([15]; under the fluorescent light, RB 30.0 μg/mL (38×MIC)) was 7 log reduction and the MIC ([16]; Staphylococcus epidermidis, Table 1 entry 16, broth dilution, dark, 24 h) was 25 µg/mL (≈ 25.7 µM). For the same compound, the “killing by RB” value ([16]; aerobic condition, entry 16) was “effectively killed”, the MIC [17] was 25 µg/mL (≈ 25.7 µM) and the MIC ([18]; Mycobacterium, Table 1 entry 25, broth dilution, dark, 24 h, read-out: MIC) was 25 µg/mL (≈ 25.7 µM). For the same compound, the MIC ([18]; dark condition, triplicated, read-out: MIC (μg/mL) against M. smegmatis 607 ™ (wild-type)) was 12.5 µg/mL (≈ 12.8 µM), the MIC [19] was 50 µg/mL (≈ 51.4 µM) and the MIC [20] was 25 µg/mL (≈ 25.7 µM). The “fungal growth inhibition in vitro” value [21] was “could inhibit the fungal growth”, the “Day 3 Growth Inhibition Percentage, RB + 518 nm Irradiation” value ([22]; 518 nm, 5.4 J/cm^2) was 79.8 ± 9 Percentage and the “Day 3 Growth Inhibition Percentage, RB Only” value ([22]; dark, no irradiation) was 6.6 ± 0. Percentage. For the same compound, the “Successful RB-PDAT (avoidance of therapeutic keratoplasty), share of cases” value ([23]; 0.1 or 0.2% RB on de-epithelized corneas 30 minutes, then 5.4 J/cm^2 green LED light 15 minutes, 18 patients unresponsive to standard therapy) was 72%, the “average time to clinical resolution after RB-PDAT” value ([23]; 0.1 or 0.2% RB, 5.4 J/cm^2 green LED light) was 46.9 ± 26.4 days and the MIC [24] was 50 µg/mL (≈ 51.4 µM). For the same compound, the “viable cells in biofilm” value [25] was “significantly reduced”, the MIC [26] was 50 µg/mL (≈ 51.4 µM) and the MIC [27] was 50 µg/mL (≈ 51.4 µM). It also gave an MIC [28] of 25 µg/mL (≈ 25.7 µM).
